Measured values as given in BindingDB's records for doi:10.1021/jm00032a001 (Warner-Lambert, 1994).

Legend:
[1] = Tested for inhibition of ICAM expression by ELISA at the dose of 30 uM
[2] = Tested for inhibition of E-selection expression by ELISA at the dose of 30 uM
[3] = Tested for inhibition of ICAM expression by ELISA at the dose of 30 uM; remark: listed apart in the source
[4] = Tested for inhibition of E-selectin expression by ELISA at the dose of 30 uM

SMILES | IC50 [1] [µM] | IC50 [2] [µM] | IC50 [3] [µM] | IC50 [4] [µM]
COc1ccc2c(c1)c(OC(C)C)c(C(N)=O)[s+]2[O-] (stereo unspecified) [3-Isopropoxy-5-methoxy-1-oxo-benzo[b]thiophene-2-carboxylic acid amide] | 4 | 6.6 |  | 
CNC(=O)c1sc2ccc(OC)cc2c1OC(C)C [3-Isopropoxy-5-methoxy-benzo[b]thiophene-2-carboxylic acid methylamide] |  |  | 6.6 | 1.4
CC(C)Oc1c(C(N)=O)sc2ccc(O)cc12 [5-Hydroxy-3-isopropoxy-benzo[b]thiophene-2-carboxylic acid amide] |  |  | 3.5 | 3.3
